# Literature values as cited in publication PMC2887613 (ChemMedChem, 2009).
# Where two headings read alike, the source gives them in different places.
# Assays:
# [1] = target: T1, rat M4 (Rattus norvegicus, UniProt P08485); conditions: rat M4/Gqi5-expressing cells, first generation compounds
# T1 sequence (P08485 1-478): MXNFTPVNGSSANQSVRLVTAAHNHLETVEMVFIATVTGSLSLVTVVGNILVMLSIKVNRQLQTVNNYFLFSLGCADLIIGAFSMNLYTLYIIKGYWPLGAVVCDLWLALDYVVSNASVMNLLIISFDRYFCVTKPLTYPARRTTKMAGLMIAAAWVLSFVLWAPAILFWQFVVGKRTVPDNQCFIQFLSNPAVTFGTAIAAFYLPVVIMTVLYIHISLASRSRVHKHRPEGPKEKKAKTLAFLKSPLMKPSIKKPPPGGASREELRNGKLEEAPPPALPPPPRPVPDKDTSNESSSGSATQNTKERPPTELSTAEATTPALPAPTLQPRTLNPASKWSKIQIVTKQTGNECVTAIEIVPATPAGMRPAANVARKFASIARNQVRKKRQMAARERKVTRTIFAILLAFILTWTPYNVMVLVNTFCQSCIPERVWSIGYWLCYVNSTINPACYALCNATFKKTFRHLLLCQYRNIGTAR
# [2] = target: T1, rat M4
# [3] = lead compound
# [4] = rat, microsomes, 1.5 h
# [5] = human, microsomes, 1.5 h
SMILES,EC50 [1] [nM],brain penetration,leftward shift of an ACh CRC ([2]; Ca2+ mobilization assay in rat M4/Gqi5-expressing cells) [fold],"ACh CRC fold-shift ([2]; first generation compounds, previously reported) [x]",solubility [3],parent remaining [4] [%],parent remaining [5] [%],brain penetration (in vivo)
Cc1cc(C)c2c(N)c(C(=O)NCc3ccc(Cl)cc3)sc2n1 [Compd 1],400,lack of brain penetration,47,47,solubility issues,,,
COc1ccc(CNC(=O)c2sc3nc(C)cc(C)c3c2N)cc1 [Compd 3],,,,,,< 10,< 10,centrally penetrating
